Measured values: patent publication US20220125051A1, “PRE-HARVEST DESICCATION METHOD” (SYNGENTA CROP PROTECTION AG, priority 2019, published 2022)
Like-named read-outs stand apart in the source and are kept apart here.

Experiments:
Experiment in all cases: Post-emergence efficacy, Method A
Assay type in all cases: in vivo
[1] = tested on: Ipomoea hederacea (IPOHE); conditions: Ipomoea hederacea, post-emergence, 312 h, evaluated after 13 days
Procedure, shortened: (§1)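 Sow in standard soil; grow 14 d under glasshouse control (24/16 °C, 14 h light, 65% humidity). Spray post-emergence with compound formulated in acetone/IF50, diluted in Empicol ESC70 (0.25% or 1%) + 1% ammonium sulphate. Return to glasshouse, water twice daily, score at 13 d on a 0–100 damage scale.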

[2] = tested on: Chenopodium album (CHEAL); conditions: Chenopodium album, post-emergence, 312 h, evaluated after 13 days
Procedure, shortened: as §1

[3] = tested on: Setaria faberi (SETFA); conditions: Setaria faberi, post-emergence, 312 h, evaluated after 13 days
Procedure, shortened: as §1

[4] = tested on: Eleusine indica (ELEIN); conditions: Eleusine indica, post-emergence, 312 h, evaluated after 13 days
Procedure, shortened: as §1

[5] = tested on: Echinochloa crus-galli (ECHCG); conditions: Echinochloa crus-galli, post-emergence, 312 h, evaluated after 13 days
Procedure, shortened: as §1

[6] = tested on: Lolium perenne (LOLPE); conditions: Lolium perenne, post-emergence, 312 h, evaluated after 13 days
Procedure, shortened: as §1

[7] = tested on: Amaranthus palmeri (AMAPA); conditions: Amaranthus palmeri, post-emergence, 312 h, evaluated after 13 days
Procedure, shortened: as §1

[8] = tested on: Digitaria sanguinalis (DIGSA); conditions: Digitaria sanguinalis, post-emergence, 312 h, evaluated after 13 days
Procedure, shortened: as §1

[9] = tested on: Euphorbia heterophylla (EPHHL); conditions: Euphorbia heterophylla, post-emergence, 312 h, evaluated after 13 days
Procedure, shortened: as §1

[10] = Application Rate 500 g/Ha, Method A, read-out: Control of weed species after post-emergence application, IPOHE (100=total damage to plant; 0=no damage to plant)
[11] = Application Rate 500 g/Ha, Method A, read-out: Control of weed species after post-emergence application, CHEAL (100=total damage to plant; 0=no damage to plant)
[12] = Application Rate 500 g/Ha, Method A, read-out: Control of weed species after post-emergence application, SETFA (100=total damage to plant; 0=no damage to plant)
[13] = Application Rate 500 g/Ha, Method A, read-out: Control of weed species after post-emergence application, ELEIN (100=total damage to plant; 0=no damage to plant)
[14] = Application Rate 500 g/Ha, Method A, read-out: Control of weed species after post-emergence application, ECHCG (100=total damage to plant; 0=no damage to plant)
[15] = Application Rate 500 g/Ha, Method A, read-out: Control of weed species after post-emergence application, LOLPE (100=total damage to plant; 0=no damage to plant)
[16] = Application Rate 500 g/Ha, Method A, read-out: Control of weed species after post-emergence application, AMAPA (100=total damage to plant; 0=no damage to plant)
[17] = Application Rate 500 g/Ha, Method A, read-out: Control of weed species after post-emergence application, DIGSA (100=total damage to plant; 0=no damage to plant)
[18] = Application Rate 500 g/Ha, Method A, read-out: Control of weed species after post-emergence application, EPHHL (100=total damage to plant; 0=no damage to plant)
[19] = Application rate 500 g/Ha, 100=total damage to plant, 0=no damage to plant, read-out: Control of weed species after post-emergence application, IPOHE
[20] = Application rate 500 g/Ha, 100=total damage to plant, 0=no damage to plant, read-out: Control of weed species after post-emergence application, CHEAL
[21] = Application rate 500 g/Ha, 100=total damage to plant, 0=no damage to plant, read-out: Control of weed species after post-emergence application, SETFA
[22] = Application rate 500 g/Ha, 100=total damage to plant, 0=no damage to plant, read-out: Control of weed species after post-emergence application, ELEIN
[23] = Application rate 500 g/Ha, 100=total damage to plant, 0=no damage to plant, read-out: Control of weed species after post-emergence application, ECHCG
[24] = Application rate 500 g/Ha, 100=total damage to plant, 0=no damage to plant, read-out: Control of weed species after post-emergence application, LOLPE
[25] = Application rate 500 g/Ha, 100=total damage to plant, 0=no damage to plant, read-out: Control of weed species after post-emergence application, AMAPA
[26] = Application rate 500 g/Ha, 100=total damage to plant, 0=no damage to plant, read-out: Control of weed species after post-emergence application, DIGSA
[27] = Application rate 500 g/Ha, 100=total damage to plant, 0=no damage to plant, read-out: Control of weed species after post-emergence application, EPHHL

SMILES | pest or weed control at 500 g/ha [1, 10] | pest or weed control at 500 g/ha [2, 11] | pest or weed control at 500 g/ha [3, 12] | pest or weed control at 500 g/ha [4, 13] | pest or weed control at 500 g/ha [5, 14] | pest or weed control at 500 g/ha [6, 15] | pest or weed control at 500 g/ha [7, 16] | pest or weed control at 500 g/ha [8, 17] | pest or weed control at 500 g/ha [9, 18] | pest or weed control at 500 g/ha [1, 19] | pest or weed control at 500 g/ha [2, 20] | pest or weed control at 500 g/ha [3, 21] | pest or weed control at 500 g/ha [4, 22] | pest or weed control at 500 g/ha [5, 23] | pest or weed control at 500 g/ha [6, 24] | pest or weed control at 500 g/ha [7, 25] | pest or weed control at 500 g/ha [8, 26] | pest or weed control at 500 g/ha [9, 27]
Cc1cnc(-c2cc[n+](CCC(=O)O)nc2)c(C)c1 [Compound A177] | 20% | 50% | 0% | 10% | 0% | 0% | 60% | 10% | 30% | – | – | – | – | – | – | – | – | –
COc1ccnc(-c2cc[n+](CCC(=O)[O-])nc2)n1 [Compound A101] | – | – | – | – | – | – | – | – | – | 10% | 70% | 80% | 40% | 60% | 70% | 80% | 60% | 80%
O=S(=O)([O-])CCC[n+]1ccc(-c2cncc(Cl)n2)cn1 [Compound A84] | – | – | – | – | – | – | – | – | – | 30% | 80% | 50% | 20% | 20% | 30% | 100% | 50% | 90%
Cc1cccc(-c2cc[n+](CCS(=O)(=O)[O-])nc2)n1 [Compound A75] | – | – | – | – | – | – | – | – | – | 20% | 30% | 70% | 60% | 50% | 50% | 60% | 50% | 60%
CNC(=O)c1cnc(-c2cc[n+](CCC(=O)[O-])nc2)nc1 [Compound A93] | – | – | – | – | – | – | – | – | – | 20% | 80% | 100% | 100% | 80% | 80% | 90% | 100% | 40%
Cc1cnc(-c2cc[n+](CCC(=O)O)nc2)c(Cl)c1 [Compound A137] | – | – | – | – | – | – | – | – | – | 10% | 20% | 40% | 40% | 30% | 20% | 60% | 40% | 20%
Cc1cc(Cl)cnc1-c1cc[n+](CCC(=O)O)nc1 [Compound A156] | 10% | 50% | 20% | 20% | 10% | 0% | 30% | 20% | 50% | – | – | – | – | – | – | – | – | –
O=C(O)CC[n+]1ccc(-c2ncc(C(F)(F)F)cc2Cl)cn1 [Compound A197] | 10% | 10% | 0% | 10% | 0% | 0% | 100% | 20% | 10% | – | – | – | – | – | – | – | – | –
O=S(=O)([O-])CC[n+]1ccc(-c2cncc(C(F)(F)F)n2)cn1 [Compound A110] | – | – | – | – | – | – | – | – | – | 80% | 100% | 50% | 90% | 50% | 50% | 100% | 40% | 80%
Cc1n[n+](CCS(=O)(=O)[O-])ccc1-c1ncccn1 [Compound A88, 2-(3-methyl-4-pyrimidin-2-yl-pyridazin-1-ium-1-yl)ethanesulfonate] | – | – | – | – | – | – | – | – | – | 30% | 70% | 70% | 90% | 60% | 60% | 100% | 90% | 60%
O=P(O)(O)CC[n+]1ccc(-c2ncccn2)cn1 [Compound A198] | 50% | 100% | 90% | 80% | 80% | 50% | 100% | 80% | 100% | – | – | – | – | – | – | – | – | –
Cc1nccc(-c2cc[n+](CCS(=O)(=O)[O-])nc2)n1 [Compound A31] | – | – | – | – | – | – | – | – | – | 100% | 100% | 50% | 80% | 60% | 60% | 100% | 90% | 50%
CC(=O)c1cnc(-c2cc[n+](CCC(=O)[O-])nc2)nc1 [Compound A58] | – | – | – | – | – | – | – | – | – | 10% | 80% | 90% | 80% | 60% | 50% | 100% | 90% | 60%
Cc1cnc(-c2cc[n+](CCS(=O)(=O)[O-])nc2)c(F)c1 [Compound A135] | – | – | – | – | – | – | – | – | – | 30% | 20% | 50% | 70% | 50% | 60% | 60% | 30% | 50%
O=S(=O)([O-])CC[n+]1ccc(-c2ncc(C(F)(F)F)cc2Cl)cn1 [Compound A175] | 20% | 60% | 30% | 40% | 30% | 10% | 30% | 40% | 30% | – | – | – | – | – | – | – | – | –
